Here are results for eleven molecules from US20250228857A1, “BIOSENSOR AND USES THEREOF” (The Johns Hopkins University, priority 2022, published 2025).

The conditions of series [1]: cited from earlier work.
For series [2] the following is noted: in vivo; cited from earlier work.
The conditions of series [3]: in vivo; cited from earlier work. The source holds these as a separate data set.
In series [4] the test system is CaMKII. Particulars: cited from earlier work.
Series [5] addresses T1, CaMKII (Rattus norvegicus, UniProt P15791).
T1 construct: endogenous in cells; host or cells: neonatal rat ventricular myocytes (Sprague-Dawley)
Description: Pacing-induced CaMKII activity in CaMKAR-expressing neonatal rat ventricular myocytes (NRVMs). In kind it is cell-based.

Series [6] concerns CaMKII. Particulars: HEK293T cells and in vitro by independent commercial laboratory.
Another series has as its target T2, CaMKII^T287D (Homo sapiens, UniProt Q13557, T287D).
T2 construct: expressed in transfected cells; host or cells: HEK293T
Description: CaMKII inhibition in 293T cells expressing CaMKAR and CaMKII^T287D (high content imaging). Particulars: HEK293T cells, IC50 curves. Type of series: cell-based.

For a further series, the system named is 293T cells. Description: Cell viability in 293T cells (CellTiter-Glo 2.0). Particulars: 12-hour exposure. (In ATP-based viability assays light output follows the ATP content of the culture.)
Series [7] has as its system Purified recombinant CaMKAR.
The target of series [8] is CaMKAR (CaMKII Activity Reporter) (human). The series can be described thus: cell-based or functional assay.
The target in series [9] is T3, constitutively active CaMKIIδT287D (Homo sapiens, UniProt Q13557, T287D).
T3 construct: P2A-mCherry (C); expressed in transfected cells; host or cells: K562 (lentiviral, doxycycline-induced)
The series can be described thus: CaMKAR-based high throughput primary screen in K562^CaMKII-CaMKAR cells. Type of series: cell-based. Particulars: 5 μM per compound, 12 hours.

Series [10] has as its target CaMKII (Homo sapiens, UniProt Q13557). Type of series: biochemical. Particulars: 5 μM drug, 100 μM ATP.

Read-outs that look alike come from different tables or passages of the source.

In the case of `CCN1CCN(Cc2ccc(Nc3ncc(F)c(-c4cc(F)c5nc(C)n(C(C)C)c5c4)n3)nc2)CC1` [abemaciclib], in series [1] (human, in vivo), the “Maximum dose used in humans” value is 200 mg BID. Besides, in series [2], the CNS penetrance was 11-16.6%. In addition, in [3], the “maximum human plasma concentration” value was 243 nM.

As for `COc1ccc(S(=O)(=O)N(CCO)c2ccccc2CN(C)CC=Cc2ccc(Cl)cc2)cc1` [KN-93], the “inhibition of autonomously hyperactive CaMKII” value with CaMKII [4] is listed as “fail to inhibit”.

Turning to `O=C(O)c1ccc2c(c1)nc(Nc1cccc(Cl)c1)c1ccncc12` [silmitasertib], the “Maximum dose used in humans” value in series [1] (human, in vivo) is given as 1000 mg BID. For the same molecule, the “maximum human plasma concentration” value in series [3] is 3420 nM.

As for `CC1(COc2ccc3c(c2)ncn3-c2ccc3cccc(N4CCC(N)CC4)c3n2)COC1` [crenolanib], the “inhibition of pacing-induced CaMKII activity at maximal human plasma concentration” value at CaMKII [5] (3 Hz pacing, ruxolitinib 1.51 μM, crenolanib 478 nM, abemaciclib 243 nM, baricitinib 58 nM, silmitasertib 3.42 μM) is “sustained inhibition”. Also, the “confirmed CaMKII inhibitor after re-test” value in the series on CaMKII [6] is “potent CaMKII inhibitors”. Further, the “Maximum dose used in humans” value in [1] (human, in vivo) is on record as 100 mg TID. Moreover, the “potency compared with AS100397” value on CaMKII^T287D is “more potent than AS100397”. Also, in the series with 293T cells, the “toxicity compared with AS100397” value is reported as “all drugs except crenolanib were less toxic”. Further, the “maximum human plasma concentration” value in [3] was 478 nM.

By IC50 is commonly meant the concentration that inhibits the measured activity by half. As for `O=c1c(O)c(-c2ccc(O)c(O)c2)oc2ccccc12` [DiOHF, 3′,4′-dihydroxyflavonol], in the series with CaMKII [4] (read-out: published IC50), the IC50 was 250 nM.

With Purified CaMKIIδc, in series [7], the “dynamic range of CaMKAR ratio in vitro, plate reader, Ca2+/CaM and ATP” value is recorded as “CaMKAR displays a larger dynamic range in vitro (264±2.1%)”; the “spectral changes of purified CaMKAR in vitro” value is “Recombinant CaMKAR is fully functional and exhibits appropriate spectral changes upon incubation with purified CaMKII”.

For “Constitutively active CaMKIIδC (T287D mutation) (from UniProt Q13557 1-499)”, the Maximal amplitude change of CaMKAR signal (R/R0), HEK293T cells, ionomycin in series [8] is 227%.

With `CCS(=O)(=O)N1CC(CC#N)(n2cc(-c3ncnc4[nH]ccc34)cn2)C1` [baricitinib], the “Maximum dose used in humans” value in [1] (FDA-approved) is 4 mg QD (97); in [1] (Healthy volunteers) it was 40 mg (98). In series [2], the CNS penetrance is 20% (103). Moreover, the “toxicity compared with AS100397” value with 293T cells was “less toxic”. Moreover, in series [3], the “maximum human plasma concentration” value is listed as 58 nM.

For `O=C(Nc1nc2cccc(-c3ccc(CN4CCS(=O)(=O)CC4)cc3)n2n1)C1CC1` [Filgotinib, filgotinib], the “inhibition of pacing-induced CaMKII activity” value on CaMKII [5] (0.5 μM and 2 μM pre-treatment) is “failed to inhibit”.

`CN[C@@H]1C[C@H]2O[C@@](C)([C@@H]1OC)n1c3ccccc3c3c4c(c5c6ccccc6n2c5c31)C(=O)NC4` [staurosporine]: in series [9], the “CaMKAR signal / hit in primary screen” value is recorded as “returned”. Further, the “inhibition in secondary screen (CaMKAR in vitro assay)” value at CaMKII [10] was “returned”.

Take `CN([C@@H](Cc1ccc(OS(=O)(=O)c2cccc3cnccc23)cc1)C(=O)N1CCN(c2ccccc2)CC1)S(=O)(=O)c1cccc2cnccc12` [KN-62, 1-[N,O-bis(5-isoquinolinesulfonyl)-N-methyl-L-tyrosyl]-4-phenylpiperazine]: in the series on CaMKII [4], the “inhibition of autonomously hyperactive CaMKII” value is recorded as “fail to inhibit”.
